The source of these data is PubChem BioAssay AID743186 (Broad Institute, 2013).

Active and inactive are the calls of the source. The rule behind the calls is not given here. Where only a bound is given, the exact number is not on record here.

Tested on in the first test: not listed separately
Briefly: Mycobacterium tuberculosis growth inhibition, OD600, confirmatory dose response, dry powder (AID 743186). The note with it: Mycobacterium tuberculosis growth, OD600; at 6 µM (top of the series).
With `Clc1cccc(-c2ccc(CNCc3ccccn3)o2)c1`, the growth change, negative = inhibition is -12.5% (inactive).
In the case of `CCOC(=O)COc1ccc2c(=O)c(-c3ccccc3)coc2c1`, the growth change, negative = inhibition was -66.9% (inactive).
Same read-out and setting: under `CCOC(=O)c1c(C)n(C)c2ccc(OC(C)C(=O)OC)cc12` (stereo unspecified) stands -3.72% (inactive); under `O=C(CCN1CCC(c2cccs2)=N1)c1cccs1`, -5.74% (inactive); under `O=C(OCc1ccc(Cl)c(Cl)c1)c1ccccn1`, -2.92% (inactive).
As for `O=C(COc1cccc2ccccc12)Nc1nc2ccccc2[nH]1`, the growth change, negative = inhibition was 3.31% (inactive).
`O=C(NC1CC2CCC1C2)C1COc2ccccc2O1` (stereo unspecified): the growth change, negative = inhibition is -8.57% (inactive).
On the same count and under the same terms, under `NC(=O)COc1ccc2cc(-c3ccc(F)cc3)c(=O)oc2c1` stands 0.842% (inactive); under `CCc1ccc(OCCCC(=O)NCc2ccco2)cc1`, 2.01% (inactive); under `NC(=O)C1(N2CCCCC2)CCN(C2CC(=O)N(CCc3ccccc3)C2=O)CC1` (stereo unspecified), 12.1% (inactive).
On to `CCOC(=O)COc1ccc2c(=O)cc(-c3ccccc3)oc2c1`, for which the growth change, negative = inhibition was -72.2% (inactive).
As for `CC(=O)c1ccc(NC(=O)c2cc(CC(C)C)on2)cc1`, the growth change, negative = inhibition is -8.04% (inactive).
The same measure, in the same setting: under `O=C(COc1c(Br)cc(Br)c2cccnc12)N1CCCCC1` stands -5.71% (inactive); under `Fc1ccc(-c2ccc(CNCc3ccccn3)o2)cc1Cl`, -11.2% (inactive); under `CCOC(=O)c1sc(NC(=O)CCN2CCOCC2)c(C(=O)OCC)c1C`, 2.46% (inactive).
Still for that read-out and setting: under `CCOC(=O)COc1ccc2c(c1)C(=O)CC1(CCCCC1)O2` stands -49.6% (inactive); under `CCCC(C)C(=O)Nc1ccc(Cl)cn1` (stereo unspecified), -8.24% (inactive).
Still for that read-out and setting: under `O=C(OCCCCN1C(=O)c2ccccc2C1=O)c1ccc(Br)o1` stands 1.08% (inactive); under `CCCOC(=O)c1ccc(NC(=O)c2ccc(Br)o2)cc1`, 4.84% (inactive).

A further test deals with Mycobacterium tuberculosis growth, OD600. The description is as above.
Details: not given
Turning to `Cc1nnc(NC(=O)c2ccc3ccccc3c2)o1`, the AC90 is 2.96 µM.
Same read-out and setting: under `Clc1cccc(CNCCNCc2cccc(Cl)c2)c1` stands > 6 µM (inactive); under `Cc1ccc(C)c(-c2csc(NC(=O)c3cnccn3)n2)c1`, > 6 µM (inactive); under `CS(=O)(=O)Cc1nc2ccccc2oc1=O`, > 6 µM (inactive).
Regarding `Brc1c(-c2ccc3c(c2)OCO3)nc2ncccn12`, the AC90 is 5.4 µM.
Regarding `O=C(NCc1cccs1)c1ccc(Br)o1`, the AC90 was > 6 µM (inactive).
With `Cc1cccc(Cn2ccc(NC(=O)c3ccc4c(c3)OCO4)n2)c1`, the AC90 is 1.67 µM.
For `c1ccc(Nc2nc(-c3ccccn3)cs2)cc1`, the AC90 is > 6 µM (inactive).
As for `COC(=O)COc1ccc2c(=O)c(Oc3ccccc3)c(C)oc2c1`, the AC90 was > 6 µM (inactive).
With `Cc1cc(C)n2nc(S(=O)(=O)Nc3c(Cl)cccc3Cl)nc2n1`, the AC90 was 3.89 µM.
On to `Cc1cccc(C)c1N1C(=O)CC(N2CCSCC2)C1=O` (stereo unspecified), for which the AC90 is > 6 µM (inactive).
`C=CCn1c(NC(=O)c2ccccc2)nc2ccccc21`: the AC90 was > 6 µM (inactive).
The same measure, in the same setting: under `O=C(Nc1nc2ccccc2[nH]1)c1cccc(Cl)c1` stands > 6 µM (inactive).
Consider `CCCCN(C/C=C/c1ccccc1OC)Cc1ccccc1`, for which the AC90 was > 6 µM (inactive).
As for `COC(=O)COc1cccc(NC(=O)c2ccc(Cl)cc2)c1`, the AC90 was > 6 µM (inactive).
As for `Cc1cc(NC(=O)C2CCCCC2)n(-c2nc3ccccc3[nH]2)n1`, the AC90 was > 6 µM (inactive).
For `NC1CCN(c2c(F)cc3c(=O)c(C(=O)O)cn(C4CC4)c3c2Cl)C1` (stereo unspecified), the AC90 was 0.176 µM.
